Test results taken from the NIST ThermoML archive (doi:10.1007/s10765-009-0593-3).
± gives the expanded uncertainty stated by the source.

Conditions: 101.33 kPa, Liquid; for speed of sound: Pulse-echo method

| Compound | mass density (288.15 K) [kg/m3] | speed of sound (288.15 K) [m/s] | mass density (293.15 K) [kg/m3] | speed of sound (293.15 K) [m/s] | mass density (298.15 K) [kg/m3] | speed of sound (298.15 K) [m/s] | mass density (303.15 K) [kg/m3] | speed of sound (303.15 K) [m/s] | mass density (308.15 K) [kg/m3] | speed of sound (308.15 K) [m/s] |
| --- | --- | --- | --- | --- | --- | --- | --- | --- | --- | --- |
| CCCOCC(C)OCC(C)O (stereo not given) [1-(1-methyl-2-propoxyethoxy)-2-propanol] | 924.348 ± 0.29 | 1306.3 ± 0.83 | 919.954 ± 0.29 | 1287.9 ± 0.83 | 915.522 ± 0.3 | 1269.9 ± 0.82 | 911.078 ± 0.31 | 1251.7 ± 0.82 | 906.642 ± 0.31 | 1234.1 ± 0.81 |
| CCCCN [1-butanamine] | 742.865 ± 0.56 | 1296.1 ± 0.83 | 738.096 ± 0.57 | 1273.6 ± 0.82 | 733.301 ± 0.58 | 1250 ± 0.82 | 728.477 ± 0.58 | 1228.9 ± 0.81 | 723.625 ± 0.59 | 1205.7 ± 0.8 |
| CCCCNCCCC [dibutylamine] | 766.115 ± 0.53 | 1289.2 ± 0.83 | 762.022 ± 0.53 | 1269.5 ± 0.82 | 757.784 ± 0.54 | 1246.7 ± 0.81 | 752.284 ± 0.55 | 1226.7 ± 0.81 | 748.17 ± 0.55 | 1207 ± 0.8 |
| CCCCN(CCCC)CCCC [tributylamine] | 781.336 ± 0.5 | 1285 ± 0.83 | 777.632 ± 0.51 | 1266.4 ± 0.82 | 773.913 ± 0.51 | 1247.6 ± 0.81 | 770.183 ± 0.52 | 1229 ± 0.81 | 766.44 ± 0.53 | 1210.4 ± 0.8 |
